What was measured:
Conditions in all cases: human, microsomes
[1] = (§1) Fraction of total metabolites recovered as M4; format: ADME, Small intestine, Microsome
[2] = as §1; format: ADME, Liver, Microsome
[3] = (§2) Fraction of total metabolites recovered as M10; format: ADME, Small intestine, Microsome
[4] = as §2; format: ADME, Liver, Microsome

| SMILES | Compound recovery [1] | Compound recovery [2] | Compound recovery [3] | Compound recovery [4] |
| --- | --- | --- | --- | --- |
| CC(C)(C)NC(=O)[C@@H]1C[C@@H]2C[C@@H](O)CC[C@@H]2CN1C[C@@H](O)[C@H](Cc1ccccc1)NC(=O)[C@H](CC(N)=O)NC(=O)c1ccc2ccccc2n1 | 21% | 21% | – | – |
| CC(C)(CO)NC(=O)[C@@H]1C[C@@H]2CCCC[C@@H]2CN1C[C@@H](O)[C@H](Cc1ccccc1)NC(=O)[C@H](CC(N)=O)NC(=O)c1ccc2ccccc2n1 | – | – | 6% | 6% |

Source: ChEMBL document CHEMBL3706492, “CYP3A4-mediated hepatic metabolism of the HIV-1 protease inhibitor saquinavir in vitro” (Xenobiotica, 2002)
